According to US20050191315A1 (priority 2002, published 2005):

Assays:
Assay type in all cases: cell-based, human
[1] = test system: TSST-1 transcytosis across T-84 cell monolayers
[2] = test system: SEB transcytosis across T-84 cell monolayers
[3] = test system: SEA transcytosis across T-84 cell monolayers
[4] = test system: SEE transcytosis across T-84 cell monolayers

## KKKVTAQELD [SEB 152-161]
[1]
  transcytosis of TSST-1 reduced: 59%
[2]
  movement of SEB across the monolayers reduced by: 85%
[3]
  transcytosis of SEA reduced: 73%
[4]
  transcytosis of SEE reduced: 68%
